The nature of data set [1]: Pharmacokinetics of arecoline in rats after intranasal and intramuscular administration. Conditions: for Tmax / half-life / AUC / Cmax: male, Lewis, rat, plasma; for AUC / Cmax: n=3 rats. In kind it is in vivo, Male Lewis rats. Here is the method:
(§1) The blood samples were collected into heparinized test tubes. […] Plasma was separated immediately and stored frozen.
The analytical method of arecoline in plasma was performed by gas-chromatography-mass spectrometry (GC-MS) after solvent extraction using a method similar to that described in Beil, et al., Drug Develop Res, 9, 203-212 (1986). Nicotine was used as an internal standard. In this method, 50µl of nicotine solution in chloroform (1.5 µg/ml and 50 µl of 10% triethylamine in chloroform were added to 0.5 ml cold plasma in a 5 ml test tube with a screw cap. The tubes were vortexed for 1 minute and centrifuged for 10-15 minutes. The organic layer was then removed, placed in a micro vial and sealed with perfluoroethylene tape such as Teflon®, until analysis.
GC-MS analysis was performed using an HP-1 column, (crosslinked methyl silicon, 12 m x […] x 0.33 µm film thickness). Two µl aliquots were injected onto the column in a splitless mode. Helium was used as a carrier gas. Detection was accomplished using a gas chromatograph electron impact mass selective detector set at m/z=155 and 162. The limit of arecoline detection was 15 ng/ml.

A short description of data set [2]: In situ-in vivo nasal study: dosing in one nostril and washing out from the other. Conditions: after 15 minutes of dosing in one nostril. Also on record: species or system rats.
For data set [3], the system named is rats. Description: Survival of rats after arecoline administration by different routes. It counts as in vivo. How it is done: as §1
Plasma arecoline concentrations were determined after nasal and i.m. administration of the compound. After intranasal administration, arecoline was absorbed very rapidly (tmax= 3 +/- 1.6 min), faster than after i.m. administration (tmax=13.3 +/- 6.2 min). […] It is not known why absorption after i.m. was slower. […] Bolus i.v. studies were also performed, but the rats died. […]

In data set [4] the test system is patients having Alzheimer presenile dementia. The note with it: cited from earlier work.
The test system of data set [5] is normal human subjects. Conditions: cited from earlier work.
The conditions of data set [6]: cited from earlier work.
A short description of data set [7]: Pharmacokinetics of physostigmine in rats after intravenous and intranasal administration. Here is the method: Male Lewis rats, each weighing approximately 300 grams were anesthesized with pentobarbital (50 mg/kg i.p.). The jugular vein was cannulated and attached to a syringe through a three way stopcock for blood collections. For nasal administration of physostigmine and arecoline, an incision was made in the neck of the animals and the trachea was cannulated with a polyethylene (PE) tube. A closed tube was inserted through the esophagus to the posterior part of the nasal cavity. The nasopalatine passage was closed with an adhesive agent to prevent drainage of the drug from the nasal cavity to the mouth. An aqueous solution of physostigmine hemi-sulfate (obtained from Sigma Chemical, St. Louis, Mo.) dose equivalent to 200 µg/kg of physostigmine base in a volume of 150 µl/kg was administered to the nasal cavity by means of a Hamilton syringe with PE tubing attached to the end. For arecoline hydrobromide (obtained from Sigma Chemical, St. Louis, MO.), an aqueous solution with a dose of 2 mg/kg was administered in a volume of 150 µl/kg. Blood samples (1 ml) were withdrawn through the jugular cannula and replaced with equal volume of fresh blood after each sampling as a function of time. For intravenous administration of physostigmine the same dose as nasal (200 µg/kg) in a volume of 1 ml/kg was injected through the femoral vein. For intramuscular arecoline hydrobromide, the dose was 1 mg/kg in a volume of 1 ml/kg injected into the biceps femoris. The blood samples were collected into heparinized test tubes. In the case of physostigmine the tubes also contained 50 µl of a 100 µg/ml neostigmine bromide (as a stabilizer for physostigmine). Plasma was separated immediately and stored frozen.
The analytical method for physostigmine in plasma was a modification of that described in Brodie, et al., J. Chromatogr. 415, 423-431 (1987). Plasma samples (0.5 ml) were pipetted into extraction tubes, and 0.2 ml of an aqueous solution of 3,3-bis(4- pyridylmethyl)-1-phenyl indolin-2-one as an internal standard (1.5 µg/ml), 2 ml of ethylacetate and 0.2 ml of a 3.5% sodium carbonate solution were added. The tubes were shaken mechanically for 0.5 minute and centrifuged for 5 minutes. The organic layer was then transferred to 12 X 75 mm tubes, evaporated to dryness under a steam of nitrogen, and the residue was reconstituted in 0.2 ml acetonitrile. After mechanical shaking (2 minutes), aliquots (125 µl) were analyzed by High Performance Liquid Chromatography (HPLC) using a dual detection system, where detection of physostigmine was by a fluorimetric detector and detection of the internal standard was by an ultraviolet (u.v.) detector.
Separation was achieved on a 25 cm x 4.6 mm reverse phase (Zorbax® C₈, Du Pont) column attached to a guard column with C₈ packing at ambient temperature The mobile phase contained 0.2 M ammonium acetate-acetonitrile (2:3), adjusted to pH 8.2-8.3 with triethylamine and was delivered at a flow rate of 1.5 ml/min. Detection of physostigmine was by fluorimetric detector (Spectroflow 980 Programmable Fluorescence Detector, Kratos) operated at excitation and emission wavelengths of 254 and 320 nm, respectively. Detection of the internal standard was by u.v. detector (Lambda-Max Model 481 LC Spectrophotometer, Waters instrument) set at 254 nm. […] The other components of the HPLC system were a Waters 590 Programmable HPLC pump, an autosampler (Waters WISP 710B) and a recording integrator (Hewlett-Packard Model 3393A).

Setting [8] is: im, 1 mg/kg, after i.m. administration.
The mark [9] stands for this setting: im, Intramuscular, 1 mg/kg Arecoline HBr.
Setting [10] is: inhaled or intranasal, 2 mg/kg, after intranasal administration.
[11] abbreviates: inhaled or intranasal, Intranasal, 2 mg/kg Arecoline HBr.
Where [12] appears, read: male, Lewis, rat, plasma, inhaled or intranasal, 200 ug/kg.

Molecules are shown by their SMILES. Like-named read-outs stand apart in the source and are kept apart here.

The Tmax is the time from dosing to the highest level. One may read the half-life as the time needed for the level to fall by half in the phase considered. Read a high half-life as slow loss. As a reminder, the AUC is the area under the concentration-time curve, a measure of exposure. Low values mean low exposure, high ones high exposure. What is called Cmax is the maximum level reached in the sampled fluid or tissue. Consider `COC(=O)C1=CCCN(C)C1` [arecoline], for which the Tmax in data set [1] (im, 1 mg/kg, Intramuscular, 1 mg/kg Arecoline HBr, n=3 rats (Table 2)) was 5.43 min; in data set [1] (setting [8]) it was 13.3 min; in data set [1] (inhaled or intranasal, 2 mg/kg, Intranasal, 2 mg/kg Arecoline HBr, n=3 rats (Table 2)), 3 min; in data set [1] (setting [10]), 3 min. Further, the half-life in data set [1] (setting [8]) amounted to 5.4 ± 1.1 min; in data set [1] (setting [10]), 2 ± 0.6 min. The AUC is 77.7 ng·h/mL in data set [1] (setting [9]) and 141 ng·h/mL in data set [1] (setting [11]). For the same molecule, the peak concentration (Cmax) came out at 249 ± 22 ng/mL in data set [1] (setting [9]) and 1750 ± 523 ng/mL in data set [1] (setting [11]). In data set [1] (ratio of AUC (nasal/intramuscular) X 100), the Bioavilability came to 85%. Besides, in data set [2], the “residual arecoline in the nose” value is reported as “no residual arecoline”. The death of rats entry in data set [3] (bolus i.v.) is “the rats died”; in data set [3] (i.m. administration) it was “None of the rats died”; in data set [3] (intranasal administration), “None of the rats died”. For the same molecule, the picture recognition tests entry was “trend toward improvement” in data set [4] (2 mg doses) and “improvement” in data set [4] (intravenous administration of 4 mg). For the same molecule, the serial learning entry in data set [5] is listed as “significantly enhanced”. For the same molecule, in data set [6], the “bioavailability upon oral administration” value is given as “not bioavailable”.
A word on the bioavailability: it is dose-corrected exposure relative to a reference, in per cent. On to `CNC(=O)Oc1ccc2c(c1)[C@]1(C)CCN(C)[C@@H]1N2C` [physostigmine], for which the time of peak concentration (Tmax) in data set [7] (Nasal, 200 µg/kg, n = 7 rats (Table 1)) was determined as 6.5 ± 1.7 min. Besides, in data set [7] (setting [12]), the exposure (AUC) is 38.9 ng·h/mL, the peak concentration (Cmax) came to 86 ± 5 ng/mL, the Tmax was 6.5 min and the half-life is 36 ± 16 min. In data set [7] (male, Lewis, rat, plasma, iv, 200 ug/kg), this molecule had an AUC of 40.2 ng·h/mL. In addition, the bioavailability in data set [7] (male, Lewis, rat, plasma, iv, 200 µg/kg) stood at 97%. Besides, in data set [4] (0.25 mg and 0.75 mg doses), the picture recognition tests entry is reported as “trend toward improvement”. The picture recognition tests result in data set [4] (intravenous administration of 0.375 mg) is listed as “improvement”.

These data come from patent EP0389975A1, “Intranasal administration of physostigmine and arecoline” (priority 1989, dated 1990).
